Measurements reported in patent publication US20160115200A1, “New Use for JNK Inhibitor Molecules for Treatment of Various Diseases” (XIGEN INFLAMMATION LTD., priority 2013, published 2016).
Square brackets hold non-standard residues; d marks the D form. Ends that are not written are not given here.

What was measured:
[1] = tested on: primary rat lymph-nodes purified T cells; assay: CD3/CD28-induced IL-2 release in primary rat lymph-nodes purified T cells; type: cell-based; conditions: inhibitor 1 h before CD3/CD28 (2 μg/mL), supernatant after 24 h
Experimental: Control rat were sacrificed and lymph-nodes were harvested. T cells further were purified (using magnetic negative selection) and plated into 96-well plates at 200.000 cells/well. Cells were treated with anti-rat CD3 and anti-rat CD28 antibodies (2 μg/mL). JNK inhibitor with SEQ ID NO: 172 was added to the cultures 1 h before CD3/CD28 treatment and IL-2 release was assessed in supernatant 24 h after treatment.
Control animal were sacrificed, lymph nodes (LN) were harvested and kept in complete RPMI medium. LN were smashed with complete RPMI on 70 μm filter using a 5 ml piston. A few drops of media were added to keep strainer wet. Cells were centrifuged for 7 min at 450 g and 4° C. Pellet was resuspended in 5 ml fresh medium. Cells were passed again through cell strainer. An aliquot of cells was counted, while cells were centrifuged again 10 min at 1400 rpm and 4° C. Cells were resupended in MACS buffer (80 μl of MACS buffer per 10^7 cells). 10 μl of anti-rat MHC microbeads were added per 10 million cells, cells were incubated for 15 min at 4°-8° C. Cells were washed with 15 ml MACS buffer and centrifuge for 7 min at 700 g and 4° C. […] Resuspended cells were counted and plated at density of 200000 cells/well in 100 μl of complete medium. […] Cytokines were then measured using standard Elisa kits. Results are expressed as pg/ml of supernatant of the measured cytokine. […]

[2] = tested on: mouse model of scopolamine-induced dry eye; assay: Scopolamine-induced dry eye in mice (TBUT, PRTT, histopathology); type: in vivo
Source text: The objective of this study was to assess the effects of two different compounds, the all-D-retro-inverso JNK-inhibitor (poly-)peptide of SEQ ID NO: 197 and the JNK inhibitor (poly-)peptide of SEQ ID NO: 172, at three dose levels in a mouse model of scopolamine-induced dry eye.
The study consisted of a total of 9 groups of female C57BL/6 mice, comprising 8 groups of 12 mice each and an additional group of 4 mice. Bilateral short-term dry eye was induced by a combination of scopolamine hydrobromide (Sigma-Aldrich Corp., St. Louis, Mo.) injection (subcutaneous (SC), four times daily, 0.5 mg/dose, Days 0-21) and by exposing mice to the drying environment of constant air draft. […] Mice of Group 9 were maintained as un-induced, (no dry eye) untreated controls.
During the in-life (treatment) period, clinical observations were recorded once daily; slit-lamp examination (SLE) with corneal fluorescein staining, tear break-up time test (TBUT), and phenol red thread test (PRTT) were performed three times per week. Necropsies were performed on Day 22; eyes, eye lids, conjunctivae, and lacrimal glands were collected from both eyes of each animal. Tissues from the right eyes (oculus dexter, OD) were fixed and then evaluated microscopically. Tissues from the left eyes (oculus sinister; OS) were flash-frozen in liquid nitrogen and stored frozen at −80° C. for possible subsequent analyses.
The TBUT test was conducted three times weekly by measuring the time elapsed in seconds between a complete blink after application of fluorescein to the cornea and the appearance of the first random dry spot in the tear film. […] At least ninety seconds later, corneal epithelial damage was graded using a slit-lamp with a cobalt blue filter after another drop of 0.1% fluorescein was reapplied to the cornea; the cornea then was scored per the Draize ocular scale.
Tear production was measured three times a week in both eyes using PRTT test strips (Zone-Quick; Menicon, Nagoya, Japan). Prior to the first treatment of the day, a thread was applied to the lateral canthus of the conjunctival fornix of each eye for 30 seconds under slit-lamp biomicroscopy. Tear migration up the tread (i.e., the length of the wetted cotton thread) was measured using a millimeter scale.
At necropsy on Day 22, both eyes from each animal, including the globes, lacrimal glands, eyelids, and conjunctivae, were excised. The right eye and associated tissues were fixed by overnight submersion in modified Davidson's solution followed by transfer to 10% neutral buffered formalin (NBF). The fixed tissues of the right eye were dehydrated, embedded in paraffin, sectioned at 3 to 5-μm thicknesses, and slide-mounted tissues were stained with hematoxylin and eosin (H & E). Stained slides were evaluated via light microscopy. Detailed and complete histopathologic assessment was conducted on all parts of the eye, with at least two section levels being examined histopathologically for each right eye. Special attention was paid to the cornea, epithelia (including goblet cells) of the conjunctiva and cornea, as well as the lacrimal gland. These tissues were scored for injury based upon a 0-4 scale, with 0 being normal, 1 being minimal, 2 being mild, 3 being moderate, and 4 being severe. For each cornea, scores were based on corneal epithelium thickness, and corneal inflammation. Conjunctivae were scored for erosion and inflammation as well as presence or absence of goblet cells.

[3] = tested on: endotoxins-induced uveitis albino rat model; assay: Endotoxins-induced uveitis (EIU), single intravenous injection, clinical scoring 24 h after LPS; type: in vivo; set-up: key to EIU clinical score, median: clinical score per eye, 0 to 4 scale
Experimental: The aim of this study was to determine the effects of single intravenous injections of SEQ ID NO: 172 (0.015, 0.18, and 1.80 mg/kg) on the inflammatory response in an endotoxins-induced uveitis albino rat model and to compare these affects to those obtained with prior art JNK inhibitor of SEQ ID NO: 197 (2 mg/kg). As a further control served phosphate sodic dexamethasone.
Sixty (60) male Lewis rats were randomly divided into six (6) groups of ten (10) animals each. EIU was induced by footpad injection of lipopolysaccharide (LPS, 1 mg/kg). NaCl (0.9%), SEQ ID NO: 197 at 2 mg/kg and SEQ ID NO: 172 at three concentrations (1.80 mg/kg, 0.18 mg/kg and 0.015 mg/kg) were administered by intravenous injection. Phosphate sodic dexamethasone (20 μg/eye) was administered by sub-conjunctival injection in both eyes. 24 hours after LPS injection, inflammatory response was evaluated by clinical scoring.
The intensity of clinical ocular inflammation was scored on a scale from 0 to 4 for each eye: […]

[4] = 2 mg/kg i.v., 24 hours after LPS

## dqsrpvqpflnlttprkprpprrrqrrkkrg ([dD][dQ][dS][dR][dP][dV][dQ][dP][dF][dL][dN][dL][dT][dT][dP][dR][dK][dP][dR][dP][dP][dR][dR][dR][dQ][dR][dR][dK][dK][dR]G) [SEQ ID NO: 197, reference compound]
[1]
  CD3/CD28-induced IL-2 release: Dose-dependent inhibition
[2]; Day 7-21, high dose 0.6% (SEQ ID NO: 197 Group 4; SEQ ID NO: 172 Group 7)
  Mean PRTT AUC: 43.17
[2]; Day 7-21, low dose (SEQ ID NO: 197 0.06% Group 2; SEQ ID NO: 172 0.05% Group 5)
  Mean PRTT AUC: 39.96
[2]; Day 7-21, mid dose (SEQ ID NO: 197 0.25% Group 3; SEQ ID NO: 172 0.2% Group 6)
  Mean PRTT AUC: 42.79
[2]; Day 7 to Day 21, high dose 0.6% (SEQ ID NO: 197 Group 4; SEQ ID NO: 172 Group 7)
  Mean Calculated TBUT AUC: 89.98
[2]; Day 7 to Day 21, low dose (SEQ ID NO: 197 0.06% Group 2; SEQ ID NO: 172 0.05% Group 5)
  Mean Calculated TBUT AUC: 88.54
[2]; Day 7 to Day 21, mid dose (SEQ ID NO: 197 0.25% Group 3; SEQ ID NO: 172 0.2% Group 6)
  Mean Calculated TBUT AUC: 91.19
[2]; SEQ ID NO: 197 0.06%, 0.25% and 0.6%, Groups 2, 3 and 4
  PRTT change with dose: generally dose-dependent increases in PRTT
[2]; SEQ ID NO: 197 low, mid and high dose (Groups 2-4)
  TBUT change with dose: slight generally dose-dependent increases in TBUT
[2]; low dose SEQ ID NO: 197 (Group 2)
  corneal changes (histology) compared with other treatment groups: slightly more severe
[2]; mid and high-dose SEQ ID NO: 172 (Groups 6, 7), high-dose SEQ ID NO: 197 (Group 4)
  histological cornea scores compared with cyclosporine group: not significantly different than the cyclosporine group scores
[3]; [4]
  EIU clinical score, median: 2
  decrease of EIU scores compared with vehicle group: 40%
[3]; 2 mg/kg i.v., 24 hours after LPS, scale 0 to 4 (+1)
  EIU clinical score, mean±SEM: 2.2±0.3
[3]; single intravenous injection 2 mg/kg
  endotoxin-induced inflammation in the anterior chamber: partially prevented the endotoxin-induced inflammation
